Source: paper PMC7248880, “Preclinical Incorporation Dosimetry of [^18F]FACH—A Novel ^18F-Labeled MCT1/MCT4 Lactate Transporter Inhibitor for Imaging Cancer Metabolism with PET” (Molecules, 2020)

Assay: Vital sign monitoring after iv injection
Type: in vivo
Details: iv 156 ± 54 MBq (0.63 ± 0.49 µg), anesthetized piglets
From the text: The radiation safety of the newly developed MCT1/MCT4-specific radioligand [^18F]FACH was preclinically investigated. […] Afterwards, volumes of interest (VOIs) of the various organs were manually defined using the respective whole-body CT dataset for anatomical orientation. The estimated TIACs were extrapolated to the human entity (Equation (2)), followed by estimation of the organ doses with OLINDA 2.1 and calculation of the effective dose using tissue weighting factors as published in Publication 103 of the International Commission of Radiation Protection (ICRP103). Finally, it can be concluded that [^18F]FACH is safe with respect to the radiation risk that is caused by its systemic application for PET studies. This supports and encourages the translation of this newly developed radiopharmaceutical to clinical study phases.
Three piglets (age: ~6 weeks, weight: ~13–15 kg) were fasted on the day of imaging and received an intranuscular. injection of 1 mL azaperone and 4 mL ketamine to introduce anesthesia. […] During narcosis, the animals maintained spontaneous respiration and no mandatory ventilation was applied. The subjects were sequentially imaged after an iv injection (contralateral ear vein) of 156 ± 54 MBq [^18F]FACH (0.63 ± 0.49 µg) in a PET/CT system (Biograph16, SIEMENS, Erlangen, Germany). […]

## CCCN(CCC[18F])c1ccc(/C=C(\C#N)C(=O)O)c(OC)c1 [[^18F]FACH, (E)-2-cyano-3-{4-[(3-[^18F]fluoropropyl)(propyl)amino]-2-methoxyphenyl}acrylic acid]
  adverse effects based on vital sign monitoring: no adverse effects were observed
